Reference: PMC9490236, “Accurate de novo design of membrane-traversing macrocycles” (Cell, 2022)
Where a SMILES comes first, the peptide text is derived from it. [ ]: non-standard residue; d: D form. NMeF = CN[C@@H](Cc1ccccc1)C(=O)O; dNMeF = CN[C@H](Cc1ccccc1)C(=O)O; NMeL = CN[C@@H](CC(C)C)C(=O)O; dNMeL = CN[C@H](CC(C)C)C(=O)O; NMeM = CN[C@@H](CCSC)C(=O)O; NMeV = CN[C@H](C(=O)O)C(C)C; NMeA = CN[C@@H](C)C(=O)O; dNMeA = CN[C@H](C)C(=O)O

What was measured:
[1] = PAMPA
in vitro = conditions: PAMPA, PAMPA_Papp_Avg

Structure (SMILES) | PAMPA_R1 [1] | PAMPA_R3 [1] | Papp (in vitro)
CC(C)C[C@@H]1C(=O)N(C)[C@H](Cc2ccccc2)C(=O)N(C)[C@@H](CC(C)C)C(=O)N[C@H](C(C)C)C(=O)N[C@H](C)C(=O)N2CCC[C@@H]2C(=O)N2CCC[C@H]2C(=O)N[C@H](C)C(=O)N1C [Design D8.20, PRO DALA *DLEU *DPHE *LEU DVAL DALA DPRO] (cyclo([dA][dNMeL][dNMeF][NMeL][dV][dA][dP]P)) | 1.00E-06 | 1.46E-06 | 1.08 ×10⁻⁶ cm/s
CC(C)C[C@@H]1C(=O)N[C@@H](C(C)C)C(=O)N[C@@H](C)C(=O)N2CCC[C@H]2C(=O)N2CCC[C@@H]2C(=O)N[C@@H](C(C)C)C(=O)N[C@@H](C)C(=O)N(C)[C@@H](CC(C)C)C(=O)N1C [Design D8.22, ALA PRO DPRO VAL ALA *LEU *DLEU VAL] (cyclo(A[NMeL][dNMeL]VAP[dP]V)) | 2.34E-07 | 1.57E-07 | 0.215 ×10⁻⁶ cm/s
CC(C)C[C@@H]1C(=O)N(C)[C@H](CC(C)C)C(=O)N[C@H](CC(C)C)C(=O)N[C@@H](C(C)C)C(=O)N2CCC[C@@H]2C(=O)N2CCC[C@H]2C(=O)N[C@H](CC(C)C)C(=O)N[C@@H](C(C)C)C(=O)N1C [Design D8.23, DLEU VAL *DLEU *DLEU DLEU VAL DPRO PRO] (cyclo([dL]V[dNMeL][dNMeL][dL]V[dP]P)) | 1.18E-06 | 1.40E-06 | 1.28 ×10⁻⁶ cm/s
CC(C)C[C@@H]1C(=O)N[C@H](C)C(=O)N(C)[C@H](CC(C)C)C(=O)N2CCC[C@@H]2C(=O)N[C@H](CC(C)C)C(=O)N[C@@H](C)C(=O)N[C@H](CC(C)C)C(=O)N2CCC[C@@H]2C(=O)N1C [Design D8.25, DLEU DPRO *DLEU DALA *DLEU DPRO DLEU ALA] (cyclo(A[dL][dP][dNMeL][dA][dNMeL][dP][dL])) | 7.42E-07 | 9.32E-07 | 0.824 ×10⁻⁶ cm/s
CC[C@H](C)[C@@H]1NC(=O)[C@H](CC(C)C)N(C)C(=O)[C@H]2CCCN2C(=O)[C@H]2CCCN2C(=O)[C@H](Cc2ccccc2)NC(=O)[C@@H](CC(C)C)NC(=O)[C@H]2CCCN2C(=O)[C@@H]2CCCN2C1=O [Design D8.27, PHE DPRO DPRO *LEU ILE PRO DPRO DLEU] (cyclo(F[dP][dP][NMeL]IP[dP][dL])) | 2.88E-07 | 2.76E-07 | 0.282 ×10⁻⁶ cm/s
CC[C@H](C)[C@@H]1NC(=O)[C@@H](CC(C)C)N(C)C(=O)[C@H](CC(C)C)N(C)C(=O)[C@H](C)NC(=O)[C@H]2CCCN2C(=O)[C@@H]2CCCN2C(=O)[C@@H]2CCCN2C(=O)[C@@H](C(C)C)NC1=O [Design D8.28, PRO DPRO ALA *LEU *DLEU ILE DVAL PRO] (cyclo(A[NMeL][dNMeL]I[dV]PP[dP])) | 1.45E-06 | 7.65E-07 | 1.14 ×10⁻⁶ cm/s
CC(C)C[C@H]1NC(=O)[C@@H]2CCCN2C(=O)[C@@H](C(C)C)NC(=O)[C@@H](C)N(C)C(=O)[C@@H](C(C)C)NC(=O)[C@@H]2CCCN2C(=O)[C@@H](Cc2ccccc2)NC(=O)[C@H](CC(C)C)N(C)C(=O)[C@@H](C(C)C)NC1=O [Design D9.5, PRO DVAL *DALA DVAL PRO DLEU DVAL *LEU DPHE] (cyclo([NMeL][dF]P[dV][dNMeA][dV]P[dL][dV])) | 3.32E-06 | 4.42E-06 | 3.51 ×10⁻⁶ cm/s
CC[C@H](C)[C@@H]1NC(=O)[C@H](Cc2ccccc2)N(C)C(=O)[C@H](CC(C)C)N(C)C(=O)[C@@H](C(C)C)NC(=O)[C@@H](C)NC(=O)[C@@H]2CCCN2C(=O)[C@@H](CC(C)C)NC(=O)[C@@H]2CCCN2C(=O)[C@H](C)NC1=O [Design D9.6, PRO DALA DVAL *LEU *PHE ILE ALA PRO DLEU] | 1.38E-06 | 1.96E-06 | 1.63 ×10⁻⁶ cm/s
CC[C@@H](C)[C@H]1NC(=O)[C@H](CC(C)C)N(C)C(=O)[C@H]2CCCN2C(=O)[C@@H](Cc2ccccc2)N(C)C(=O)[C@@H](Cc2ccccc2)N(C)C(=O)[C@H](CC(C)C)N(C)C(=O)[C@@H](C(C)C)NC(=O)[C@@H]2CCCN2C(=O)[C@H](C)NC1=O [Design D9.9, PRO DVAL *LEU *DPHE *DPHE DPRO *LEU DILE ALA] (cyclo(AP[dV][NMeL][dNMeF][dNMeF][dP][NMeL][dI])) | 7.88E-07 | 2.31E-07 | 0.575 ×10⁻⁶ cm/s
CC[C@H](C)[C@@H]1NC(=O)[C@@H](CC(C)C)N(C)C(=O)[C@H](CC(C)C)N(C)C(=O)[C@@H](C)N(C)C(=O)[C@@H](Cc2ccccc2)NC(=O)[C@H](C(C)C)NC(=O)[C@@H](C)NC(=O)[C@@H]2CCCN2C(=O)[C@H]2CCCN2C1=O [Design D9.10, VAL DPHE *DALA *LEU *DLEU ILE DPRO PRO DALA] (cyclo([dA]V[dF][dNMeA][NMeL][dNMeL]I[dP]P)) | 1.20E-06 | 6.09E-07 | 0.826 ×10⁻⁶ cm/s
CC[C@H](C)[C@@H]1NC(=O)[C@@H](C)N(C)C(=O)[C@@H](C)N(C)C(=O)[C@@H]2CCCN2C(=O)[C@H](CC(C)C)NC(=O)[C@H](CC(C)C)NC(=O)[C@@H](CC(C)C)NC(=O)[C@@H]2CCCN2C(=O)[C@H]2CCCN2C1=O [Design D9.11, PRO DLEU LEU LEU PRO *DALA *DALA ILE DPRO] (cyclo([dL]LLP[dNMeA][dNMeA]I[dP]P)) | 2.61E-07 | 2.10E-07 | 0.223 ×10⁻⁶ cm/s
CC[C@@H](C)[C@H]1NC(=O)[C@H]2CCCN2C(=O)[C@H]([C@@H](C)CC)NC(=O)[C@H](CC(C)C)N(C)C(=O)[C@H]2CCCN2C(=O)[C@@H]2CCCN2C(=O)[C@H](Cc2ccccc2)N(C)C(=O)[C@H](Cc2ccccc2)NC(=O)[C@H]([C@@H](C)CC)NC1=O [Design D9.13, DPRO DILE ILE PHE *PHE PRO DPRO *LEU ILE] (cyclo(F[NMeF]P[dP][NMeL]I[dP][dI]I)) | 3.63E-06 | 3.09E-06 | 3.37 ×10⁻⁶ cm/s
CC[C@H](C)[C@@H]1NC(=O)[C@@H](CC(C)C)NC(=O)[C@@H]2CCCN2C(=O)[C@@H]2CCCN2C(=O)[C@@H](CC(C)C)NC(=O)[C@@H]2CCCN2C(=O)[C@H]2CCCN2C(=O)[C@@H](C(C)C)NC(=O)[C@@H](C)N(C)C1=O [Design D9.14, PRO DLEU ILE *DALA DVAL DPRO PRO DLEU PRO] (cyclo([dL]PP[dL]I[dNMeA][dV][dP]P)) | 6.02E-07 | 5.63E-07 | 0.584 ×10⁻⁶ cm/s
CC[C@H](C)[C@@H]1NC(=O)[C@@H](C)NC(=O)[C@@H]2CCCN2C(=O)[C@H]2CCCN2C(=O)[C@@H]2CCCN2C(=O)[C@@H](C)NC(=O)[C@@H](Cc2ccccc2)NC(=O)[C@@H](CC(C)C)N(C)C(=O)[C@@H](CC(C)C)N(C)C1=O [Design D9.15, PRO DPRO PRO DALA ILE *DLEU *DLEU DPHE DALA] (cyclo([dA]I[dNMeL][dNMeL][dF][dA]P[dP]P)) | 9.95E-07 | 6.20E-07 | 0.85 ×10⁻⁶ cm/s
CC(C)C[C@@H]1C(=O)N[C@H](C(C)C)C(=O)N(C)[C@@H](C(C)C)C(=O)N2CCC[C@H]2C(=O)N2CCC[C@@H]2C(=O)N[C@@H](C)C(=O)N(C)[C@@H](Cc2ccccc2)C(=O)N(C)[C@H](CC(C)C)C(=O)N[C@H](C)C(=O)N1C [Design D9.17, DPRO ALA *PHE *DLEU DALA *DLEU DVAL *VAL PRO] (cyclo(A[NMeF][dNMeL][dA][dNMeL][dV][NMeV]P[dP])) | 2.83E-06 | 4.13E-07 | 1.74 ×10⁻⁶ cm/s
CC(C)C[C@@H]1C(=O)N(C)[C@H](CC(C)C)C(=O)N2CCC[C@H]2C(=O)N[C@H](CC(C)C)C(=O)N2CCC[C@@H]2C(=O)N2CCC[C@@H]2C(=O)N(C)[C@H](CC(C)C)C(=O)N[C@H](Cc2ccccc2)C(=O)N[C@@H](C)C(=O)N1C [Design D9.18, ALA *DLEU *DLEU PRO DLEU DPRO DPRO *DLEU DPHE] (cyclo(A[dNMeL][dNMeL]P[dL][dP][dP][dNMeL][dF])) | 1.88E-06 | 1.97E-06 | 1.76 ×10⁻⁶ cm/s
CC(C)C[C@@H]1NC(=O)[C@@H](CC(C)C)NC(=O)[C@@H](CC(C)C)N(C)C(=O)[C@@H](CC(C)C)N(C)C(=O)[C@H](C(C)C)NC(=O)[C@@H](C)N(C)C(=O)[C@@H]2CCCN2C(=O)[C@@H]2CCCN2C(=O)[C@@H](C)N(C)C1=O [Design D9.19, PRO *DALA VAL *DLEU *DLEU DLEU LEU *DALA PRO] (cyclo(L[dNMeA]PP[dNMeA]V[dNMeL][dNMeL][dL])) | 1.47E-06 | 1.16E-06 | 1.28 ×10⁻⁶ cm/s
CC(C)C[C@@H]1NC(=O)[C@@H]2CCCN2C(=O)[C@H]2CCCN2C(=O)[C@@H](C)N(C)C(=O)[C@@H](CC(C)C)N(C)C(=O)[C@H](C(C)C)NC(=O)[C@@H](C)N(C)C(=O)[C@H]2CCCN2C(=O)[C@@H]2CCCN2C1=O [Design D9.22, DPRO *DALA VAL *DLEU *DALA DPRO PRO LEU PRO] (cyclo(LP[dP][dNMeA]V[dNMeL][dNMeA][dP]P)) | 1.87E-07 | 1.82E-07 | 0.189 ×10⁻⁶ cm/s
CC[C@@H](C)[C@H]1NC(=O)[C@@H](CC(C)C)NC(=O)[C@@H]2CCCN2C(=O)[C@H]2CCCN2C(=O)[C@@H](C(C)C)NC(=O)[C@H](C)NC(=O)[C@@H]2CCCN2C(=O)[C@@H]([C@H](C)CC)NC(=O)[C@@H](C)N(C)C1=O [Design D9.23, DILE *DALA DILE PRO ALA DVAL DPRO PRO DLEU] (cyclo([dL][dI][dNMeA][dI]PA[dV][dP]P)) | 1.37E-07 | 1.50E-07 | 0.141 ×10⁻⁶ cm/s
CSCC[C@H]1C(=O)N(C)[C@H](C)C(=O)N[C@H](CC(C)C)C(=O)N2CCC[C@@H]2C(=O)N2CCC[C@H]2C(=O)N[C@@H](CC(C)C)C(=O)N2CCC[C@H]2C(=O)N2CCC[C@@H]2C(=O)N[C@H](C(C)C)C(=O)N1C [Design D9.24, DPRO DVAL *MET *DALA DLEU DPRO PRO LEU PRO] (cyclo(LP[dP][dV][NMeM][dNMeA][dL][dP]P)) | 7.85E-08 | 8.51E-08 | 0.0869 ×10⁻⁶ cm/s
CC(C)C[C@@H]1C(=O)N[C@H](Cc2ccccc2)C(=O)N2CCC[C@@H]2C(=O)N2CCC[C@@H]2C(=O)N2CCC[C@H]2C(=O)N[C@H](C(C)C)C(=O)N(C)[C@@H](C)C(=O)N(C)[C@@H](C)C(=O)N(C)[C@H](CC(C)C)C(=O)N1C [Design D9.25, DVAL *ALA *ALA *DLEU *DLEU DPHE DPRO DPRO PRO] (cyclo([dV][NMeA][NMeA][dNMeL][dNMeL][dF][dP][dP]P)) | 2.32E-06 | 1.52E-06 | 2.19 ×10⁻⁶ cm/s
